Experimental data: patent US4985450A, “Arylthiadiazolylsulfonamides and derivatives” (priority 1989, dated 1991)

What was measured:
carbonic anhydrase B = carbonic anhydrase B (Homo sapiens, UniProt P00915); experiment: Carbonic anhydrase esterase inhibition (spectrophotometric rate of hydrolysis of 1 mM p-nitrophenyl acetate); format: biochemical; settings: read-out: Carbonic Anhydase Esterase Inhibition IC50
Experimental: It is generally known that carbonic anhydrase inhibitors are useful for the treatment of glaucoma. The carbonic anhydrase inhibitory activities have been evaluated by spectrophotometrically measuring the rate of hydrolysis of 1 mM p-nitrophenyl acetate catalyzed by carbonic anhydrase B according to the procedure described in J. Armstrong et al., J. Biol. Chem., Vol 241, No. 21, pp 5137-5149 (1966).

[1] = test system: intraocular pressure in alpha-chymotrypsin-induced ocular hypertensive rabbit eyes; experiment: Alpha-chymotrypsin-induced ocular hypertension, maximum intraocular pressure drop; format: in vivo, New Zealand White rabbits
Experimental: This is done by the direct injection of the proteolytic enzyme, alpha-chymotrypsin into the posterior chamber of the rabbit eye.
Ocular hypertension is elicited in New Zealand White rabbits (2.0-2.5 kg) by the injection of alpha-chymotrypsin into the posterior chamber as described by Sears and Sears (Am. J. Ophthalmol. 77, 378-383, (1974). Briefly, the animals are pretreated with indomethacin (10 mg/kg i.p.) to prevent the otherwise immediate onset of inflammation. One hour later, the rabbits are anesthetized with a 2 ml intramuscular injection of a 50:50 mixture of xylazine (20 mg/kg) and ketamine (100 mg/kg). The eyes are individually proptosed and treated topically with 50 microliters of 0.5% proparacaine. The anterior chamber is cannulated with a 30-gauge needle attached to a reservoir set at a pressure of 25 mmHg. Then, 0.5 ml of alpha-chymotrypsin (350 units) is injected through the pupil near the limbus and into the posterior chamber using an S-curved, 30-gauge needle. During the injection, the tip of the needle is swept across the posterior chamber to distribute the enzyme. Care is taken to avoid injection of any enzyme into the corneal stroma. Both needles can then be carefully removed to prevent any significant loss of aqueous humor.
The eyes are examined biweekly for corneal lacerations and overt inflammatory responses. […] The intraocular pressures of the operated rabbits are checked approximately four weeks posttreatment. […]. Generally, about 50% of the operated eyes are suitable for study. Intraocular pressure is measured with a standard instrument and the results are expressed in terms of maximum (over measurment time) percentage drop of intraocular pressure.

carbonic anhydrase B, sequence (P00915 2-261 limits assumed): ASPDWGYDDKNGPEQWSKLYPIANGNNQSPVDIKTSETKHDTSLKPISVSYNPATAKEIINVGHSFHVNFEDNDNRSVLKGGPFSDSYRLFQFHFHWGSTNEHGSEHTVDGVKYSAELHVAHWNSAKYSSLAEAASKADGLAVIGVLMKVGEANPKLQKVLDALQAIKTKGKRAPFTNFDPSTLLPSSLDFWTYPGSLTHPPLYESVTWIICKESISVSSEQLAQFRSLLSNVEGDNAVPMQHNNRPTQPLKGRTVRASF

IC50 (carbonic anhydrase B)	SMILES	Maximum Intraocular Pressure Drop ([1]; at 0.3%)	Maximum Intraocular Pressure Drop ([1]; at 3%)	Maximum Intraocular Pressure Drop ([1]; at 0.5%)	Maximum Intraocular Pressure Drop ([1]; at 1.0%)
270 nM	NS(=O)(=O)c1nc(-c2ccccc2Cl)ns1 [3-(2-Chlorophenyl)-1,2,4-thiadiazole-5-sulfonamide]	24.8%	–	–	–
400 nM	COC(=NS(=O)(=O)c1nc(-c2ccccc2Cl)ns1)C(C)C [N-(1-Methoxy-2-methylpropylidene)-3-(2-chlorophenyl)-1,2,4-thiadiazole-5-sulfonamide]	13%	26%	–	–
–	CC(C)(C)NC[C@H](O)COc1nsnc1N1CCOCC1 [Timolol, reference compound]	–	–	27.5%	28.0%
